# Patent US20250235429A1, “TREATMENT OF DISEASES VIA ADMINISTRATION OF BUNTANETAP AND AN ANTIDIABETIC AGENT” (ANNOVIS BIO, INC., priority 2024, published 2025)
# Key:
# [1] = tested on: APP in SH-SY-5Y human neuroblastoma cells; settings: cited from earlier work
# Huntingtin Protein = settings: through Translational Suppression; cited from earlier work
# aSYN = settings: neuroblastoma cells; cited from earlier work
# [2] = tested on: human SNCAA53T tg mouse model of PD; settings: cited from earlier work
# [3] = tested on: early AD patients and early PD patients; settings: cited from earlier work
# APP/PS1 transgenic mice [4] = assay: Contextual fear conditioning (FC), associative memory; type: in vivo; settings: Buntanetap 1 mg/Kg and/or dulaglutide 0.1 mg/Kg
# Description: (§1) Animals: Heterozygous double transgenic mice expressing both human APP (K670N:M671L) and human PS1 (M146L) (line 6.2) and their wild-type non-transgenic littermates, both males and females, were used for these experiments. They were obtained by a breeding colony maintained at the animal facility of Columbia University. They were genotyped through PCR on tail samples. Animals were injected i.p. from the age of […] for 1 month prior to starting behavioral assessment which lasted for 2 weeks during which treatment continued. Behavioral assessment examined spatial and associative memory. Finally, mice were sacrificed for electrophysiological assessment of synaptic function.
# Mice were coded to blind investigators with respect to genotype and treatment. Results were expressed with Standard Error of the Mean (SEM). […] Results were analyzed by ANOVA analysis with post-hoc correction with the combination or genotype as main effect. […]
# The combination effect on associative memory was assessed through fear conditioning (FC). […] Freezing behavior, defined as the absence of movements except for that needed for breathing, was scored using Noldus software. Contextual fear learning, a type of memory for which hippocampal function is indispensable, was evaluated 24 hrs after training by measuring freezing responses for 5 min in the same chamber where the mice have been trained. […]
# APP/PS1 transgenic mice [5] = assay: 2-day radial arm water maze (RAWM), spatial memory; type: in vivo
# Description: as §1
# Mice were coded to blind investigators with respect to genotype and treatment. Results were expressed with Standard Error of the Mean (SEM). Level of significance was set for p<0.05. Results were analyzed by ANOVA analysis with post-hoc correction with the combination or genotype as main effect. Experiments were designed in a balanced fashion, and mice were trained and tested at each of the different conditions in 3 or 4 separate experiments.
# Mice were i.p. injected with the drug from the age of 8 weeks prior to plaque appearance until behavioral assessment that started at 12 weeks of age and lasted for 2 weeks.
# Spatial memory was studied with the 2-day radial arm water maze (RAWM) test. The task is a hybrid of the Morris Water Maze (MWM) and the radial arm land maze. The motivation for the animals is immersion in water. The mouse needs to swim in 6 alleys (arms) radiating from a central area until it finds a hidden (submerged) platform at the end of one of the arms, based on visual cues placed in the room. In the old RAWM version of the task, the goal arm varies from day to day, requiring 21 days of training in wild-type mice to reach the learning criterion. In the new version of the task, the goal arm is kept constant for all trials, with a different start arm on successive trials, such that the learning criterion will be reached in 2 days. The first day of the protocol was a training day. Mice were trained to identify the platform location by alternating between a visible and a hidden platform in a goal arm. The final 3 trials on day 1 and all 15 trials on day 2 used a hidden escape platform to force mice to use spatial cues to identify the location of the goal arm. To avoid learning limitations imposed by exhausting practice and to avoid fatigue that may result from consecutive trials, spaced practice training was established by running the mice in cohorts of 4 and alternating different cohorts through the 15 training trials over 3 hours testing periods each day. On day 1, a visible platform was laced in a goal location. Mouse 1 of cohort 1 was gently placed in the pool near the perimeter of the wall of the first start arm (specified on a score sheet) and facing the center of the pool. The number of incorrect arm entries (entries in arms with no platform) was counted. If the animal enters the incorrect arm it was gently pulled back to the start arm. Each trial lasted up to 1 min. Failure to select an arm after 15 sec was counted as an error and the mouse was returned to the start arm. After 1 min, if the platform had not been located, the mouse was guided gently through the water by placing a hand behind it to direct it towards the platform. The mouse rested on the platform for 15 sec. After completing the trial, the mouse was removed from the pool, gently towel dried and placed back into its cage under a heat lamp. The goal platform location was different for each mouse. […] After each mouse from cohort 1 completed six alternating trials between visible and hidden platforms, the mice were left to rest under a heating source, and mice from the second cohort were tested in the same way.
smiles,measurement,setting,value
"CN1CC[C@]2(C)c3cc(OC(=O)Nc4ccccc4)ccc3N(C)C12 (stereo partly drawn) [Buntanetap, (3aR)-1,3a,8-trimethyl-1,2,3,3a,8,8a-hexahydropyrrolo[2,3-b]indol-5-yl phenylcarbamate]",levels of APP in vitro,[1],lowers
same,levels of Huntingtin Protein,Huntingtin Protein,reduced
same,aSYN in vitro,aSYN,lowers
same,colonic motility,[2],Restored
same,levels of neurotoxic proteins and inflammatory factors (biomarker data),[3]; AD and PD cohorts,trend in lowering
same,axonal and synaptic function,[3]; AD and PD patients,improved
same,blood brain barrier crossing,[3]; AD and PD patients,crossed the blood brain barrier
same,inflammatory markers,[3]; AD and PD patients,reduced
same,neurotoxic protein biomarkers,[3]; AD and PD patients,reduced
same,ADAS-Cog11 and WAIS coding (psychometric tests),"[3]; AD patients, 80 mg QD",statistically significant improvements
same,cognition as measured by ADAS-Cog11 and WAIS coding speed,"[3]; AD patients, statistical significance versus baseline at 80 mg dose but not placebo",improved
same,MDS-UPDRS and WAIS coding (psychometric tests),"[3]; PD patients, 5-80 mg QD",statistically significant improvements
same,"motor function as measured by MDS-UPDRS (Part II, III, IV and total)","[3]; PD patients, all doses, maximum improvement for 10 & 20 mg",improved
same,WAIS speed and accuracy,"[3]; PD patients, significant versus placebo in 5 mg, 20 mg and 80 mg arms",improved
same,safety and tolerability,[3]; doses up to 80 mg in both AD and PD patients,well tolerated
same,Cmax and AUC,"[3]; plasma, without evidence for a plateau up to 80 mg QD",increased with dose
same,impairment of associative memory measured through contextual fear conditioning (FC),APP/PS1 transgenic mice [4],did not ameliorate
same,% Improvement (RAWM errors),"APP/PS1 transgenic mice [5]; APP/PS1, Buntanetap 1 mg/kg",29.4%
same,Meran Number of Errors (RAWM),"APP/PS1 transgenic mice [5]; APP/PS1, Buntanetap 1 mg/kg",2.8
same,Meran Number of Errors (RAWM),"APP/PS1 transgenic mice [5]; APP/PS1, Buntanetap 10 mg/kg",1.6
same,% Improvement (RAWM errors),"APP/PS1 transgenic mice [5]; APP/PS1, Buntanetap 10 mg/kg, 100% = difference of 1.7 errors",100%
same,impairment of short-term spatial memory measured through the 2-day radial arm water maze (RAWM),"APP/PS1 transgenic mice [5]; APP/PS1 mice, Buntanetap 1 mg/Kg and/or dulaglutide 0.1 mg/Kg",did not ameliorate
